Laboratory results as given in US11541050B2, “Pyrimidine derivatives for the treatment of viral infections” (JANSSEN SCIENCES IRELAND UC, priority 2011, dated 2023).

Columns and labels:
[1] = target: T1, human TLR7 (wild type sequence) (Homo sapiens, UniProt Q9NYK1); assay: TLR7 cellular NFκB-luc reporter assay, wild type TLR7; type: cell-based; set-up: unit not given here; details: lowest effective concentration, wild type TLR7 (compounds 74 onward)
T1 construct: expressed in transfected cells; host or cells: HEK293
T1 sequence (Q9NYK1 27-1049): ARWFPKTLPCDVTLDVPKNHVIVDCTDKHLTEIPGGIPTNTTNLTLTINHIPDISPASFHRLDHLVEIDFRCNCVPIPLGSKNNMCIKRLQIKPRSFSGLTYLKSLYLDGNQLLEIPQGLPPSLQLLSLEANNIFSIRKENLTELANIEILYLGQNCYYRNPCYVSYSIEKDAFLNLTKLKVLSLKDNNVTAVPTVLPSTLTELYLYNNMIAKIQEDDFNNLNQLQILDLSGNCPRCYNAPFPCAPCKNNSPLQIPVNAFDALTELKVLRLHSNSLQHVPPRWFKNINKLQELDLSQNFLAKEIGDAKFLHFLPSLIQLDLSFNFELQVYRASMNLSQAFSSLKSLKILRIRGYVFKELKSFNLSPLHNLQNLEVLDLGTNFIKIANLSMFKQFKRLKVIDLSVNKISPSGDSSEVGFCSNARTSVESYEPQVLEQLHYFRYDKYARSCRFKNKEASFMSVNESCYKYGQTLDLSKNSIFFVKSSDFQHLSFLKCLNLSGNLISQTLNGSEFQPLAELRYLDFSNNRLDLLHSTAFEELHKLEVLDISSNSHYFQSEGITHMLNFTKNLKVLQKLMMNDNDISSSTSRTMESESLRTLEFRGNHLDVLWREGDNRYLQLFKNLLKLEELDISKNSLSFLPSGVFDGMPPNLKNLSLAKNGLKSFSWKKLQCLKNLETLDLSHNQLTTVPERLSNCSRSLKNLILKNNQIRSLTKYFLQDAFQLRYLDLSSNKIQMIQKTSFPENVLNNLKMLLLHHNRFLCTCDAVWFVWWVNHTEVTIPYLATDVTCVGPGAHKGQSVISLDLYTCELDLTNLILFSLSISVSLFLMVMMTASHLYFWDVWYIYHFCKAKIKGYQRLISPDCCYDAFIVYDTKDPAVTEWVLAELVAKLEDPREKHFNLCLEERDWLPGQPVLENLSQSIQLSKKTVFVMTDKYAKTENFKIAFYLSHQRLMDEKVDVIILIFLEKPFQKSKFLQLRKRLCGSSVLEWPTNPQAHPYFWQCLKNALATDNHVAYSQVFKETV
Experimental: (§1) The ability of compounds to activate human TLR7 and/or TLR8 was assessed in a cellular reporter assay using HEK293 cells transiently transfected with a TLR7 or TLR8 expression vector and NFκB-luc reporter construct. In one instance the TLR expression construct expresses the respective wild type sequence or a mutant sequence comprising a deletion in the second leucine-rich repeat of the TLR.
(§2) Briefly, HEK293 cells were grown in culture medium (DMEM supplemented with 10% FCS and 2 mM Glutamine). For transfection of cells in 10 cm dishes, cells were detached with Trypsin-EDTA, transfected with a mix of CMV-TLR7 or TLR8 plasmid (750 ng), NFκB-luc plasmid (375 ng) and a transfection reagent and incubated for 48 hours at 37° C. in a humidified 5% CO2 atmosphere. Transfected cells were then detached with Trypsin-EDTA, washed in PBS and resuspended in medium to a density of 1.67×10^5 cells/mL. Thirty microliters of cells were then dispensed into each well in 384-well plates, where 10 μL of compound in 4% DMSO was already present. Following 6 hours incubation at 37° C., 5% CO2, the luciferase activity was determined by adding 15 μl of Steady Lite Plus substrate (Perkin Elmer) to each well and readout performed on a ViewLux ultraHTS microplate imager (Perkin Elmer). Dose response curves were generated from measurements performed in quadruplicates. Lowest effective concentrations (LEC) values, defined as the concentration that induces an effect which is at least two fold above the standard deviation of the assay, were determined for each compound.

[2] = target: T2, human TLR8 (wild type sequence) (Homo sapiens, UniProt Q9NR97); assay: TLR8 cellular NFκB-luc reporter assay, wild type TLR8; type: cell-based; set-up: unit not given here; details: lowest effective concentration, wild type TLR8 (compounds 74 onward)
T2 construct: expressed in transfected cells; host or cells: HEK293
T2 sequence (Q9NR97 27-1041): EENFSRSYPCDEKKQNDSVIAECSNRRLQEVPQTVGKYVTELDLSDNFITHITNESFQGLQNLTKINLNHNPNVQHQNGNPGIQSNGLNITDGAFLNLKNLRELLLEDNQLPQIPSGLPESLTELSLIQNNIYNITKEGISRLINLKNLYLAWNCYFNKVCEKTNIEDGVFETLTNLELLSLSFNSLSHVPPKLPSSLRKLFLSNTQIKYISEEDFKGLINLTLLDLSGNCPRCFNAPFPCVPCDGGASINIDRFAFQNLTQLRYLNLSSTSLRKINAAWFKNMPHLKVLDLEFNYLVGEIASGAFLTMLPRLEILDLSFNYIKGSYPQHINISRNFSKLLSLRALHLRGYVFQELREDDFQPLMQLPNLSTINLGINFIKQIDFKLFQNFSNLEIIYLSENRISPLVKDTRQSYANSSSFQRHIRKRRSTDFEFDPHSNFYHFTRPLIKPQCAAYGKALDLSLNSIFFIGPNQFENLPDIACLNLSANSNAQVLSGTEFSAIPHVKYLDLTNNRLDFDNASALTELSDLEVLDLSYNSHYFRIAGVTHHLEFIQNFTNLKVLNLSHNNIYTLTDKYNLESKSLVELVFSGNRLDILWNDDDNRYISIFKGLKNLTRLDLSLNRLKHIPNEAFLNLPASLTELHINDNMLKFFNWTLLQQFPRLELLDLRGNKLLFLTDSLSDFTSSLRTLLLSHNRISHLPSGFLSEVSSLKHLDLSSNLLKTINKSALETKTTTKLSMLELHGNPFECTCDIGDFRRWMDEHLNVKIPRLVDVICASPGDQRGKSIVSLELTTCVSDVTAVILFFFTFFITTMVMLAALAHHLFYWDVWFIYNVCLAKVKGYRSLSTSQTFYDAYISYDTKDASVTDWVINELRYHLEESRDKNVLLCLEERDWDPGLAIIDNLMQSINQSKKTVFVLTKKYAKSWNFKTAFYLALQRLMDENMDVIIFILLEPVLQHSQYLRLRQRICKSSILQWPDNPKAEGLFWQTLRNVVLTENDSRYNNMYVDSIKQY
Experimental: as §1, §2

[3] = test system: HCV replicon in Huh-7 luc/neo cells; assay: Suppression of HCV replicon replication by conditioned media from compound-treated PBMC; type: cell-based, HCV type 1 b; details: Hepatitis C virus; conditioned media from compound-treated PBMC on Huh-7 luc/neo replicon cells (compounds 74 onward); read-out: PBMC HUH-7 EC50
Experimental: Activation of human TLR7 results in robust production of interferon by plasmacytoid dendritic cells present in human blood. The potential of compounds to induce interferon was evaluated by looking at the antiviral activity in the HCV replicon system upon incubation with conditioned media from peripheral blood mononuclear cells (PBMC). […] The assay utilized the stably transfected cell line Huh-7 luc/neo harboring an RNA encoding a bicistronic expression construct comprising the wild type NS3-NS5B regions of HCV type 1 b translated from an Internal Ribosome Entry Site (IRES) from encephalomyocarditis virus (EMCV), preceded by a reporter gene (Firefly-luciferase) and a selectable marker gene (neoR, neomycine phosphotransferase). The construct is flanked by 5′ and 3′ NTRs (non-translated regions) from HCV type 1 b. Continued culture of the replicon cells in the presence of G418 (neoR) is dependent on the replication of the HCV RNA. The stably transfected replicon cells that replicate HCV RNA autonomously and to high levels, encoding inter alia luciferase, were used for profiling of the conditioned cell culture media.
Briefly, PBMCs were prepared from buffy coats of at least two donors using a standard Ficoll centrifugation protocol. Isolated PBMCs were resuspended in RPMI medium supplemented with 10% human AB serum and 2×10^5 cells/well were dispensed into 384-well plates containing compounds (70 μL total volume). After overnight incubation, 10 μL of supernatant was transferred to 384-well plates containing 2.2×10^3 replicon cells/well in 30 μL (plated the day before). Following 24 hours of incubation, replication was measured by assaying luciferase activity using 40 μL/well Steady Lite Plus substrate (Perkin Elmer) and measured with ViewLux ultraHTS microplate imager (Perkin Elmer). […] Recombinant interferon α-2a (Roferon-A) was used as a standard control compound.

Row | Compound | TLR 7 wt LEC [1] | TLR 8 wt LEC [2] | EC50 [3] [nM]
1 | CCCCNc1nc(N)ncc1OCc1cc(C(F)(F)F)n(C)n1 [Compound 181] | 0.146 | 1.210 | 96
2 | CCCCNc1nc(N)ncc1OCc1cc(OCC2CC2)c(OC)cn1 [Compound 175] | 0.367 | 2.480 | 167
3 | CCCCNc1nc(N)ncc1OCCCc1cccc(OC)c1OC [Compound 150] | 1.180 | 4.310 | 689
4 | CCC[C@@H](CO)Nc1nc(N)ncc1OCc1ccc2ccccc2n1 [Compound 192] | 0.080 | 0.220 | 44
5 | CCCCNc1nc(N)ncc1O[C@H](C)c1ccccc1 [Compound 98] | >25 | 10.100 | 22000
6 | CCCCNc1nc(N)ncc1OCc1cc(-c2ccco2)on1 [Compound 116] | 0.652 | 1.610 | 66
7 | CCCCCNc1nc(N)nc(C)c1OCc1ccccc1 [Compound 124] | 15.610 | 13.650 | > 23800
8 | CCC[C@H](CCO)Nc1nc(N)ncc1OCc1ccccc1 [Compound 190] | 8.620 | 4.330 | 3230
9 | CCCCNc1nc(N)ncc1OCc1cc2ccccc2cn1 [Compound 166] | 0.128 | 0.980 | 46
10 | CCCCNc1nc(N)ncc1OCc1cc(OC2CCCC2)c(OC)cn1 [Compound 173] | 0.222 | 2.550 | 86
11 | CCCCNc1nc(N)ncc1OCCn1ccc(=O)c2ccc(OC)cc21 [Compound 144] | 13.010 | 20.790 | 1320
12 | CCCCNc1nc(N)ncc1OCCOc1ccc(C(=O)OC)c(OC)c1 [Compound 134] | 2.010 | 2.110 | 935
13 | CCCCNc1nc(N)ncc1OCCCc1ccc(Cl)cc1 [Compound 109] | 0.790 | 2.230 | 393
14 | CCCCNc1nc(N)ncc1OCC(=O)c1ccc(OC)cc1 [Compound 94] | 1.590 | 3.170 | 696
15 | CCCC(C)Nc1nc(N)ncc1OCc1ccc2ccccc2n1 (stereo not drawn) [Compound 185] | 0.743 | 2.340 | 488
16 | CCCCNc1nc(N)ncc1OCc1c(C)noc1-c1ccccc1 [Compound 118] | 1.670 | 3.710 | 976
17 | CCC(CO)Nc1nc(N)ncc1OC (stereo not drawn) [Compound 92] | >25 | 14.570 | 20200
18 | CCCCNc1nc(N)ncc1OCCCc1ccccc1Br [Compound 108] | 6.580 | >25 | 6770
19 | CCC[C@@H](CO)Nc1nc(N)ncc1OCCCc1ccccc1 [Compound 125] | 1.630 | 0.598 | 336
20 | CCCCNc1nc(N)ncc1OCCOc1ccc(C#N)cc1 [Compound 126] | 1.000 | 1.020 | 264
